Results as given in patent publication US6506567B2, “Water-soluble flourescent intercalator compound” (Fuji Photo Film Co., Ltd., priority 2000, dated 2003).

Assays:
Format in all cases: binding
[1] = test system: calf thymus DNA (hybrid DNA); assay: Detection of hybrid DNA fragment using fluorescent intercalator (fluorometry); details: intercalator 1 M; calf thymus DNA 100 μM; 5 mM phosphate buffer pH 7.0, sodium sulfate 5 mM; excitation 434 nm
Experimental: (§1) The fluorescent intercalator (1 M) prepared above was placed in an aqueous 5 mM phosphate buffer solution (pH 7.0) containing a calf thymus DNA (hybrid DNA, 100 μM) and sodium sulfate (5 mM). In the buffer solution, the fluorescent intercalator was intercalated into the hybrid DNA. The fluorescence emitted by the buffer solution containing the hybrid DNA having the intercalated fluorescent intercalator was fluorometrically measured in the wavelength region of 440 to 600 nm by exciting with a light of 434 nm.
(§2) The fluorescence emitted by the same buffer solution containing no calf thymus DNA (i.e., hybrid DNA) was also measured in the same manner.

[2] = test system: calf thymus DNA (hybrid DNA); assay: Rate of dissociation of intercalator from hybrid DNA (SDS addition, fluorescence over time); details: SDS final concentration 0.5 vol. %; same buffer solution as the fluorescence test
Experimental: (§3) To the buffer solution containing hybrid DNA and intercalator which was employed above was added an aqueous sodium dodecylsulfate (SDS) solution to give a final SDS concentration of 0.5 vol. %. After the SDS solution was added, variation of the fluorescence strength at a lapse of time was measured. From the variation data, the dissociation rate was determined. The dissociation rate was 0.02/sec.

[3] = test system: single stranded DNA (calf thymus DNA heated to 90° C. for 20 min.); assay: Fluorometry with single stranded DNA in place of hybrid DNA; details: procedures of Example 1, excitation 434 nm
Experimental: as §1, §2
(§4) The same calf thymus DNA (hybrid DNA) as employed in Example 1 was heated to 90° C. for 20 min., to give a single stranded DNA.
(§5) The procedures of Example 1 were repeated using thus prepared single stranded DNA in place of the hybrid DNA.

[4] = test system: single stranded DNA (calf thymus DNA heated to 90° C. for 20 min.); assay: Rate of dissociation of intercalator from single stranded DNA; details: determined in the same manner as in Example 1 (SDS 0.5 vol. %)
Experimental: as §3, §4, §5

Molecule	fluorescence strength at 475 nm, buffer solution containing hybrid DNA relative to buffer solution containing no hybrid DNA [1]	dissociation rate from hybrid DNA [2]	fluorescence strength at 475 nm, buffer solution containing single stranded DNA relative to buffer solution containing no single stranded DNA [3]	dissociation rate from single stranded DNA [4]
N,N-bis{3-[4-(3-(6-chloro-9-imino-2-methoxyacridinyl)propyl)-1,4-diazacyclohexyl]propyl}naphthalenediimide	not high	–	–	–
N-{3-[4-(3-( 6-chloro-9-imino-2-methoxyacridinyl)propyl)-1,4-diazacyclohexyl]propyl}-N′-{3-[4-(3-aminopropyl)-1,4-diazacyclohexyl]propyl}naphthalenediimide	approx. 30 times	0.02 s⁻¹	approx. 16 times	1.2 s⁻¹
COc1ccc2nc3cc(Cl)ccc3c(N)c2c1 [9-amino-6-chloro-2-methoxyacridine, reference compound]	approx. 6 times	19.0 s⁻¹	–	–
